According to patent publication EP1112066B1, “USE OF METHOXYMORPHOLINO DOXORUBICIN FOR THE TREATMENT OF A LIVER TUMOR” (Pharmacia Italia S.p.A., priority 1998, dated 2000):
Where a name gives a salt, the structure may show the parent alone. Read-outs that look alike come from different tables or passages of the source.

Assays:
[1] = system: metastatic colorectal cancer; conditions: cited from earlier work
HCC = assay: Phase I dose-finding study of MMDX via the hepatic artery (IHA): antitumor activity in liver; assay type: in vivo, human
Method: (§1) A single arm, multicentre, dose-finding Phase I study of MMDX (PNU 152243) administered as a brief infusion of 30 minutes every 4 weeks via the hepatic artery (IHA) to adult patients either with hepatic metastatic colorectal cancer who have progressed after receiving intravenous chemotherapy or intrahepatic 5-fluoruracil chemotherapy, or with previously untreated primary hepatocellular carcinoma or cholangiocarcinoma involving the liver was carried out. Their disease was confined to the liver, at the time of trial entry.
Antitumor activity was documented in this study.
(§2) On a total of 23 registered patients, 18 received intra hepatic artery (IHA) administration of MMDX.
(§3) Doses tested ranged from 100 mcg/m^2 to 800 mcg/m^2.
(§4) Results are available on 13 patients: 3 patients (6 cycles) at 100 mcg/m^2, 3 patients (12 cycles) at 200mcg/m^2, 3 patients (4 cycles) at 400 mcg/m^2, 3 patients (10 cycles) at 600 mcg/m^2 and 1 patient (3 cycles) at 800 mcg/m^2.

[2] = system: tumor cells resistant to anthracyclines and presenting the mdr phenotype; assay: Activity in vitro and in vivo on resistant tumor cells
Text: MMDX is active in vitro and in vivo on tumor cells resistant to anthracyclines and presenting the mdr phenotype, this last mechanism being recognized to occur also in man.
A well known pathway of the metabolic transformation of the antitumor anthracyclines in mammals is the side-chain carbonyl group reduction, giving the corresponding 13-dihydro derivative.

[3] = Lethal dose (LD10) in rats; assay type: in vivo
Text: (§5) The starting dose was 100 mcg/m^2,corresponding to one third of the LD10 in rats.

[4] = Cytotoxic activity in vitro in the presence of liver microsomes; assay type: cell-based; conditions: mouse, rat and human liver microsomes
Text: (§6) Strong evidence of antitumor efficacy in liver is also supported by preclinical data. […] This specific effect on liver metastases is probably due to metabolite(s) produced by liver enzymes. This hypothesis is reinforced by several results showing MMDX being activated in vitro by liver microsomes to a highly cytotoxic product. This metabolic conversion is believed to occur also in humans.

[5] = system: panel of different tumor types; assay: Oral antitumor efficacy in a panel of tumor types; assay type: in vivo
Text: (§7) The high lipophilicity of the molecule, which confers to the compound the ability to reach high intracellular concentrations and is most likely one of the reasons of its efficacy on resistant models, makes it effective also after oral administration. The oral antitumor efficacy of MMDX has been examined in a panel of different tumor types with various schedules of administration. […] In these models, the effective oral doses of MMDX are 1.3-2 fold higher than the effective i.v. doses. […] This might be a reflection of a different behaviour of the drug, due to first pass effect to the liver.

[6] = system: liver metastases from M5076 murine fibrosarcoma; assay: Liver metastases from M5076 murine tumor; assay type: in vivo
Text: as §7, §6

liver metastases [7] = assay: Phase II study by i.v. route in breast cancer patients with liver metastases; assay type: in vivo, human; conditions: 1500 mcg/m^2 i.v., six patients treated
[8] = Phase I dose-finding study of MMDX via the hepatic artery (IHA): toxicity; assay type: in vivo, human; conditions: for thrombocytopenia (grade): considered tumor related (HCC patient); for anemia (max. grade): one patient
Method: as §1
The primary goal of this study was the determination of Maximal Tolerated Dose (MTD) and Dose-Limiting Toxicities (DLTs)of MMDX when administered via the hepatic artery.
as §5, §2, §3, §4

[9] = system: murine leukemias, solid murine and human tumor models; assay: In vivo antitumor potency, optimal i.v. dose
liver metastases [10] = assay: Phase I and phase Ib studies by intravenous route: response in liver and toxicity; assay type: in vivo, human; conditions: i.v.
Text: The expectation that MMDX is effective in liver neoplasms comes from the findings of phase I and phase Ib studies conducted by intravenous route, where, out of 30 patients evaluable for response in liver, 5 experienced regressions of liver metastases. […] Tumor shrinkage occurred at doses of 1250 and 1500 mcg/m^2 i.v..

liver metastases [11] = conditions: hepatic arterial infusion; no substantial effect on survival; cited from earlier work
[12] = after failure of 5-FU leucovorin
[13] = 400 mcg/m^2 IHA, one patient (1 cycle)
[14] = 600 mcg/m^2 IHA, 1 patient (2 cycles)
[15] = 800 mcg/m^2 IHA, 1 patient (1 cycle)
[16] = systemic, metastatic colorectal cancer

Compound: CCc1c2c(nc3ccc(OC(=O)N4CCC(N5CCCCC5)CC4)cc13)-c1cc3c(c(=O)n1C2)COC(=O)[C@]3(O)CC [Irinotecan hydrochloride trihydrate]
- median survival time [1, 12]: approximately 9 months
- response rate [1, 12]: 15%

Compound: COc1cccc2c1C(=O)c1c(O)c3c(c(O)c1C2=O)C[C@@](O)(C(=O)CO)C[C@@H]3O[C@H]1C[C@H](N2CCO[C@H](OC)C2)[C@H](O)[C@H](C)O1 [MMDX, Methoxymorpholino doxorubicin]
- reduction of measurable liver disease (NMR, overall 17.75 cm^2 at entry) (HCC; 200 mcg/m^2 IHA, first HCC patient, after 2 IHA cycles): more than 86%
- tumor response (HCC; 200 mcg/m^2 IHA, first HCC patient, after 2 IHA cycles, confirmed after the fourth): Partial Response (PR)
- tumor response (HCC; 200 mcg/m^2 IHA, first HCC patient, after the sixth IHA cycle): Complete Response (CR)
- number of objective tumor responses in liver (HCC; 200 mcg/m^2 IHA, patients with HCC): Two
- decrease of the bigger lesion in diameter (6 cm at baseline, Ctscan) (HCC; 200 mcg/m^2 IHA, second HCC patient, after the third IHA cycle): 50%
- tumor response (HCC; 800 mcg/m^2 IHA, third HCC patient, after 3 cycles): minor response
- activity on tumor cells resistant to anthracyclines (mdr phenotype) ([2]; in vitro and in vivo): active
- cross-resistance ([2]; tumor cells resistant to L-PAM or cDDP, or to Topoisomerase II inhibitors (at-mdr)): No cross-resistance
- one third of the LD10 in rats [3]: 100 mcg/m^2
- cytotoxic activity in the presence of liver microsomes [4]: increased
- lipophilicity (Lipophilicity): high
- oral antitumor activity compared to intravenous (i.v.) administration ([5]; all animal models examined, various schedules): comparable
- effective oral doses, fold higher than the effective i.v. doses ([5]; animal models): 1.3-2 fold
- efficacy on the liver metastases versus the solid primary ([6]; administered orally, same M5076 model): more effective on the liver metastases than on the solid primary
- efficacy relative to the oral formulation ([6]; injectable formulation): less effective
- survival time (best result) ([6]; oral formulation, daily for 5 days): doubling of survival time
- number of complete responses in liver lesions (liver metastases [7]): 1
- number of minor responses in liver lesions (liver metastases [7]): 1
- number of partial responses in liver lesions (liver metastases [7]; one not confirmed four weeks apart): 3
- leucopenia (grade) ([8]; 100 mcg/m^2 IHA, 1 patient (1 cycle)): 1
- fatigue (grade) ([8]; 100 mcg/m^2 IHA, 2 patients (3 cycles)): 1-2
- vomiting ([8]; 100 mcg/m^2 IHA, one out of three patients (1 cycle)): mild
- leucopenia (grade) ([8]; 200 mcg/m^2 IHA, 1 patient (1 cycle)): 1
- fatigue (grade) ([8]; 200 mcg/m^2 IHA, 1 patient (2 cycles)): 2
- thrombocytopenia (grade) ([8]; 200 mcg/m^2 IHA, 1 patient (3 cycles)): 1-2
- increase in transaminases (grade), attributable to the study drug ([8]; 200 mcg/m^2 IHA, 2/3 patients): 1-2
- nausea (grade) ([8]; 200 mcg/m^2 IHA, 2 patients (2 cycles)): 2
- vomiting (grade) ([8]; 200 mcg/m^2 IHA, 2 patients (3 cycles)): 1-2
- anemia (max. grade) ([8]; 200 mcg/m^2 IHA): ≤ 1
- hyperglycemia (grade) ([8]; 200 mcg/m^2 IHA, two patients (one diabetic, persisting from baseline; one post prandial)): 3
- leucopenia (grade) ([8]; 400 mcg/m^2 IHA, 1 patient (1 cycle)): 1
- increase in transaminases (grade), attributable to the study drug ([8]; 400 mcg/m^2 IHA, 2/3 patients): 1-2
- nausea (grade) ([8]; 400 mcg/m^2 IHA, 2 patients (2 cycles)): 2-3
- alopecia [8, 13]: mild
- local pain at porth-a-cath site [8, 13]: Mild
- vomiting (grade) [8, 13]: 2
- transaminase elevation (grade) ([8]; 400 mcg/m^2 IHA, third patient, probably due to the IHA technology applied): 2-3
- thrombocytopenia (grade) ([8]; 600 mcg/m^2 IHA, 1 patient (1 cycle)): 1-2
- alopecia [8, 14]: mild
- fatigue (grade) [8, 14]: 2
- increase in transaminases (grade), attributable to the study drug ([8]; 600 mcg/m^2 IHA, 2 out of 3 patients): 1-2
- nausea (grade) ([8]; 600 mcg/m^2 IHA, 2 patients (2 cycles)): 1-2
- anemia (max. grade) ([8]; 600 mcg/m^2 IHA): ≤ 1
- fatigue (grade) [8, 15]: 1
- fever (grade) [8, 15]: 1
- mucositis (grade) [8, 15]: 1
- nausea (grade) [8, 15]: 1
- anemia (max. grade) ([8]; 800 mcg/m^2 IHA): ≤ 1
- transaminase elevation (grade) ([8]; 800 mcg/m^2 IHA, the one patient treated): 3
- time of maximum transaminases elevation ([8]; IHA): during the first week after treatment
- most frequently observed adverse events attributable to the study drug ([8]; IHA, 100-800 mcg/m^2): nausea, vomiting and fatigue
- other grade 3-4 non-hematological events ([8]; IHA, 100-800 mcg/m^2): No other grade 3-4 events
- AGC ([8]; IHA, all doses reported): always normal
- bilirubinemia increases (grade) ([8]; IHA, starting from 100 mcg/m^2, not considered due to the study drug): 2
- antitumor activity ([9]; after i.p., i.v. or oral administration, murine leukemias, solid murine and human tumor models): good antitumor activity
- optimal i.v. dose, fold less than that of doxorubicin ([9]; in vivo, i.v.): at least 80 fold
- main toxicities (liver metastases [10]; phase I and Ib): nausea and vomiting (requiring intravenous antiemetic treatment), myelosuppression and transient elevations in transaminases
- liver finding at autopsy (liver metastases [10]; additional patient with colorectal cancer and multiple liver metastases at entry, after the first cycle): no evidence of liver metastases
- number of patients with regressions of liver metastases (liver metastases [10]; out of 30 patients evaluable for response in liver, shrinkage at 1250 and 1500 mcg/m^2): 5
- regression of liver lesions (liver metastases [10]; two patients with colorectal cancer, after 3 cycles): < 50%
- regression in liver lesions (liver metastases [10]; two patients with renal cancer, after 3 cycles): greater than 50%

Compound: 5-fluoruracil (5-FU) plus folinic acid
- overall survival [1, 16]: around 12 months
- response rate [1, 16]: 20%

Compound: COc1cccc2c1C(=O)c1c(O)c3c(c(O)c1C2=O)CC(O)(C(O)CO)CC3OC1CC(N2CCOC(OC)C2)C(O)C(C)O1 (stereo not drawn) [reduced derivative of MMDX]
- active doses, fold higher as compared to the parent drug ([2]; doxorubicin-resistant models, in vitro and in vivo): 10 fold
- activity against doxorubicin-resistant models ([2]; in vitro and in vivo): maintains activity

Compound: O=c1[nH]cc(F)c(=O)[nH]1 [5-FU, 5-fluoruracil]
- response rate (liver metastases [11]): up to 50%

Compound: O=c1[nH]c(=O)n([C@H]2C[C@H](O)[C@@H](CO)O2)cc1F [FUDR, 5-fluorodeoxyuridine]
- response rate (liver metastases [11]): up to 50%
